Measurements from US20230031406A1, “COMPOUNDS AND COMPOSITIONS FOR TREATING CONDITIONS ASSOCIATED WITH NLRP ACTIVITY” (Novartis AG, priority 2018, published 2023).
Read-outs that look alike come from different tables or passages of the source. One block for each compound: values may come before it.

Test system: PMA-differentiated THP-1 cells
Experiment: IL-1β production in PMA-differentiated THP-1 cells stimulated with gramicidin (hTHP-1 assay containing 2% fetal bovine serum; Procedures 1 and 2)
Format: cell-based, human
Details: 2% fetal bovine serum
Method in brief: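 PMA-primed (20 ng/ml, 16-18 h) THP-1 cells in RPMI with 2% FBS, 50,000 cells/well, were preincubated 1 h with compound (0.0017-100 μM final, 0.37% DMSO), then stimulated 2 h with 5 μM gramicidin. Supernatant IL-1β measured by HTRF.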

[1] = Homo sapiens, THP-1, Table B3, hTHP-1 assay, class symbols, read-out: IC50
[2] = Table B1, class symbols, read-out: Average IC50 of compounds in hTHP-1 assay: hTHP-1 IC50
[3] = Table B2, class symbols, read-out: hTHP-1 IC50
[4] = Homo sapiens, THP-1, Table B1, class symbols, read-out: Average IC50 of compounds in hTHP-1 assay: hTHP-1 IC50
[5] = Homo sapiens, THP-1, Table B4, class symbols, read-out: hTHP-1 IC50
[6] = Homo sapiens, THP-1, Table B2, numeric bounds, read-out: hTHP-1 IC50
[7] = Homo sapiens, THP-1, Table B2, class symbols, read-out: hTHP-1 IC50

SMILES: NS(=O)(=NC(=O)Nc1c2c(nc(C3CC3)c1C1CC1)CCC2)c1ccn(C(F)F)n1 (single isomer, unassigned) [Example 695, (R) or (S)-N′-((2,3-dicyclopropyl-6,7-dihydro-5H-cyclopenta [b]pyridin-4-yl)carbamoyl)-1-(difluoromethyl)-1H-pyrazole-3-sulfonimidamide]
IC50 (Table B3, hTHP-1 assay, class symbols, read-out: IC50): 1 to 5 µM

SMILES: C[C@@H]1CCc2c1nc1c(c2NC(=O)N=[S@](N)(=O)c2cc([C@@H](C)O)cs2)CCC1 (single isomer, unassigned) [Example 661, (S)-4-((R) or (S)-1-hydroxyethyl)-N′-(((R)-3-methyl-1,2,3,5,6,7-hexahydrodicyclopenta[b,e]pyridin-8-yl)carbamoyl) thiophene-2-sulfonimidamide]
IC50 [1]: 1 to 5 µM

SMILES: CC1CCc2c1nc1c(c2NC(=O)N=S(N)(=O)c2ncc(C(C)(C)O)s2)CCC1 (stereo not shown) [Compound 140, 5-(2-hydroxypropan-2-yl)-N′-((3-methyl-1,2,3,5,6,7-hexahydrodicyclopenta[b,e]pyridin-8-yl)carbamoyl)thiazole-2-sulfonimidamide]
IC50 [2]: 0.04 to 0.2 µM

SMILES: CCn1cc(F)c(S(N)(=O)=NC(=O)Nc2c(C)c(CC(F)(F)F)nc3c2CCC3)n1 (single isomer, unassigned) [Example 717, (R) or (S)-1-ethyl-4-fluoro-N′-((3-methyl-2-(2,2,2-trifluoroethyl)-6,7-dihydro-5H-cyclopenta[b]pyridin-4-yl)carbamoyl)-1H-pyrazole-3-sulfonimidamide]
IC50 [1]: 1 to 5 µM

SMILES: CC(C)(O)c1ncc(S(N)(=O)=NC(=O)Nc2c3c(nc4c2CCC42CC2)CCC3)s1 (stereo not shown) [Compound 136, 2-(2-hydroxypropan-2-yl)-N′-((1′,5′,6′,7′-tetrahydro-2′H-spiro[cyclopropane-1,3′-dicyclopenta[b,e]pyridin]-8′-yl)carbamoyl)thiazole-5-sulfonimidamide]
IC50 [4]: 0.04 to 0.2 µM

SMILES: NS(=O)(=NC(=O)Nc1c2c(nc(C(F)(F)F)c1-c1ccccc1)CCC2)c1nn(C(F)F)cc1F (stereo not shown) [Example 740, 1-(Difluoromethyl)-4-fluoro-N′-((3-phenyl-2-(trifluoromethyl)-6,7-dihydro-5H-cyclopenta[b]pyridin-4-yl)carbamoyl)-1H-pyrazole-3-sulfonimidamide]
IC50 [5]: 0.04 to 0.2 µM

SMILES: CC(C)(O)c1cc(F)c(S(N)(=O)=NC(=O)Nc2c3c(nc4c2CCC4)CCC3)s1 (single isomer, unassigned) [Compound 105a, (R) or (S)-3-fluoro-N′-((1,2,3,5,6,7-hexahydro-dicyclopenta[b,e]pyridin-8-yl)carbamoyl)-5-(2-hydroxypropan-2-yl)thio-phene-2-sulfonimidamide]
IC50 [2]: 0.04 to 0.2 µM

SMILES: CC(C)(O)c1cnc(S(N)(=O)=NC(=O)Nc2c3c(nc4c2CCC4O)CCC3)s1 (stereo not shown) [Compound 710]
IC50 [6]: > 30 µM

SMILES: NS(=O)(=NC(=O)Nc1c2c(nc3c1CCC3)CCC2)c1nn(C(F)F)cc1F (stereo not shown) [Example 735, 1-(Difluoromethyl)-4-fluoro-N′-((1,2,3,5,6,7-hexahydrodicyclopenta[b,e]pyridin-8-yl)carbamoyl)-1H-pyrazole-3-sulfonimidamide]
IC50 [5]: 0.2 to 1 µM

SMILES: CC1(C)CCc2c1nc1c(c2NC(=O)N=S(N)(=O)c2cc([C@@](C)(O)CO)cs2)CCC1 (stereo partly drawn) [Example 624, 4-((R)-1,2-dihydroxypropan-2-yl)-N′-((3,3-dimethyl-1,2,3,5,6,7-hexahydrodicyclopenta[b,e]pyridin-8-yl)carbamoyl)thiophene-2-sulfonimidamide]
IC50 [1]: 0.2 to 1 µM

SMILES: Cc1c(C2CC2)nc2c(c1NC(=O)N=S(N)(=O)c1sc(C(C)(C)O)nc1CO)CCC2 (stereo not shown) [Compound 679, N′-((2-cyclopropyl-3-methyl-6,7-dihydro-5H-cyclopenta[b]pyridin-4-yl)carbamoyl)-4-(hydroxymethyl)-2-(2-hydroxypropan-2-yl)thiazole-5-sulfonimidamide]
IC50 [7]: 5 to 30 µM

SMILES: CC(C)(O)c1cc(F)c(S(N)(=O)=NC(=O)Nc2c3c(nc(C4CC4)c2C2CC2)CCC3)s1 (stereo not shown) [Compound 727]
IC50 [7]: 0.2 to 1 µM

SMILES: CC(C)(O)c1cc(S(N)(=O)=NC(=O)Nc2c3c(nc4c2CCC4(C)C)CCC3)nn1-c1ccccc1 (stereo not shown) [Compound 663, N′-((3,3-dimethyl-1,2,3,5,6,7-hexahydrodicyclopenta[b,e]pyridin-8-yl)carbamoyl)-5-(2-hydroxypropan-2-yl)-1-phenyl-1H-pyrazole-3-sulfonimidamide]
IC50 [7]: 1 to 5 µM

Results, then the compound that gave them:

IC50 [3]: 5 to 30 µM
SMILES: CC(C)(O)c1sc(S(N)(=O)=NC(=O)Nc2c3c(nc4c2CCC4)CCC3)cc1Cl (single isomer, unassigned) [Compound 688b, (S) or (R)-4-Chloro-N′-((1,2,3,5,6,7-hexahydrodicyclopenta [b,e]pyridin-8-yl)carbamoyl)-5-(2-hydroxypropan-2-yl)thiophene-2-sulfonimidamide]

IC50 [3]: 0.04 to 0.2 µM
SMILES: Cc1nc2c(c(NC(=O)N=S(N)(=O)c3cc(C(C)(C)O)cs3)c1C1CC1)CCC2 (single isomer, unassigned) [Compound 623a, (R) or (S)-N′-((3-cyclopropyl-2-methyl-6,7-dihydro-5H-cyclopenta[b]pyridin-4-yl)carbamoyl)-4-(2-hydroxypropan-2-yl)thiophene-2-sulfonimidamide]

IC50 (Homo sapiens, THP-1, Table B1, numeric bounds, read-out: Average IC50 of compounds in hTHP-1 assay: hTHP-1 IC50): > 30 µM | IC50 [6]: > 30 µM
SMILES: Cc1cc(C2CC2)nc(NC(=O)N=S(N)(=O)c2ncc(C(C)(C)O)s2)n1 (single isomer, unassigned) [Compound 185b, (S) or (R)-N′-((4-cyclopropyl-6-methylpyrimidin-2-yl)carbamoyl)-5-(2-hydroxypropan-2-yl)thiazole-2-sulfonimidamide]

IC50 [4]: 0.2 to 1 µM
SMILES: CC1CCc2c1nc1c(c2NC(=O)N=S(N)(=O)c2cc(C(C)(C)O)cs2)CCC1 (single isomer, unassigned) [Compound 141ab, (R,S) or (R,R)-4-(2-hydroxypropan-2-yl)-N′-((3-methyl-1,2,3,5,6,7-hexahydro-dicyclopenta[b,e]pyridin-8-yl)carbamoyl)thiophene-2-sulfonimidamide]

IC50 [6]: > 30 µM
SMILES: CC1(C)CCc2c1nc1c(c2NC(=O)N=S(N)(=O)c2cnn3c2OCCC3)CCC1 (single isomer, unassigned) [Compound 304a, (S) or (R)-N′-((3,3-dimethyl-1,2,3,5,6,7-hexahydrodicyclopenta [b,e]pyridin-8-yl)carbamoyl)-6,7-dihydro-5H-pyrazolo[5,1-b][1,3] oxazine-3-sulfonimidamide]

IC50 [2]: 0.2 to 1 µM
SMILES: CC(C)n1ccc(S(N)(=O)=NC(=O)Nc2c3c(nc4c2CCC42CC2)CCC3)n1 (single isomer, unassigned) [Compound 172b, (R) or (S)-1-Isopropyl-N′-((1′,5′,6′,7′-tetrahydro-2′H-spiro[cyclopropane-1,3′-dicyclopenta[b,e]pyridin]-8′-yl)carbamoyl)-1H-pyrazole-3-sulfonimidamide]

IC50 [2]: 0.2 to 1 µM
SMILES: CC1CCc2c1nc1c(c2NC(=O)N=S(N)(=O)c2cc(C(C)(C)O)cs2)CCC1C [Compound 131a, (R,S,S) and (R,R,R)-N′-((3,5-dimethyl-1,2,3,5,6,7-hexa-hydrodicyclo-penta[b,e]pyridin-8-yl)carbamoyl)-4-(2-hy-droxypropan-2-yl)thiophene-2-sulfonimidamide]

IC50 [3]: 0.2 to 1 µM
SMILES: CCC1CCc2c1nc1c(c2NC(=O)N=S(N)(=O)c2sc(C(C)(C)O)cc2F)CCC1 (single isomer, unassigned) [Compound 671d, (R, R) or (R, S) or (S, R) or (S, S)-N′-((3-ethyl-1,2,3,5,6,7-hexahydrodicyclopenta [b,e]pyridin-8-yl)carbamoyl)-3-fluoro-5-(2-hydroxypropan-2-yl) thiophene-2-sulfonimidamide]
